Reference: US8921389B2, “Naphthyridine derivatives as inhibitors of hypoxia inducible factor (HIF) hydroxylase” (Fibrogen, Inc., priority 2011, dated 2014)

Target: HIF-PH2 (EGLN1) (Homo sapiens (Human), UniProt Q9GZT9)
Assay: HIF-PH assay (14CO2 capture, peptide-dependent turnover)
Format: biochemical
Settings: enzyme inhibition against HIF-PH2; peptide-dependent percent turnover
From the text: Ketoglutaric acid α-[1-^14C]-sodium salt, alpha-ketoglutaric acid sodium salt, and HPLC purified peptide may be obtained from commercial sources, e.g., Perkin-Elmer (Wellesley Mass.), Sigma-Aldrich, and SynPep Corp. (Dublin Calif.), respectively. […] For example, a HIF peptide for use in the HIF-PH assay is [methoxycoumarin]-[…]-amide. HIF-PH, e.g., HIF-PH2 (EGLN1), can be expressed in, e.g., insect Hi5 cells, and partially purified, e.g., through a SP ion exchange chromatography column. […] Reactions are initiated by addition of HIF-PH enzyme.
The peptide-dependent percent turnover is calculated by subtracting percent turnover in the absence of peptide from percent turnover in the presence of substrate peptide. Percent inhibition and IC50 are calculated using peptide-dependent percent turnover at given inhibitor concentrations. Calculation of IC50 values for each inhibitor is conducted using GraFit software (Erithacus Software Ltd., Surrey UK).
Representative compounds of the disclosure were analyzed using the HIF-PH assay described above.

Sequence of HIF-PH2 (EGLN1) (Q9GZT9 whole entry): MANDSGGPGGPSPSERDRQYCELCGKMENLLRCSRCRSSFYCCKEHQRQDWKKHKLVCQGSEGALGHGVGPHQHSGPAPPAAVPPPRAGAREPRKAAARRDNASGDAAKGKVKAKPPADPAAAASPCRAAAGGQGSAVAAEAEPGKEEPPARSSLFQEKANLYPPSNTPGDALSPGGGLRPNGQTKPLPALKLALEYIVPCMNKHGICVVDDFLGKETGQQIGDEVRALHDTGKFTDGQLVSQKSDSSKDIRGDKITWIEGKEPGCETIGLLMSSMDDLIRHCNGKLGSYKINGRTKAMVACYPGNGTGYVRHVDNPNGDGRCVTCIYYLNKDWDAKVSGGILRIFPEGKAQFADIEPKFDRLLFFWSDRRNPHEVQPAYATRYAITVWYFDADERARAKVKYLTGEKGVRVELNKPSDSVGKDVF

Compound	IC50 [µM]
O=C(NCc1nnn[nH]1)c1ncc2ccc(=O)n(Cc3ccccc3)c2c1O [Example 82, 1-Benzyl-8-hydroxy-2-oxo-1,2-dihydro-[1,6]naphthyridine-7-carboxylic acid (1H-tetrazol-5-ylmethyl)-amide]	138
O=C(O)CCNC(=O)c1ncc2ccc(=O)n(Cc3ccccc3)c2c1O [Example 70, 3-[(1-Benzyl-8-hydroxy-2-oxo-1,2-dihydro-[1,6]naphthyridine-7-carbonyl)-amino]-propionic acid]	167
CNC(=O)c1nc(C#N)c2c(cc(-c3ccccc3)c(=O)n2Cc2ccccc2)c1O [Example 41, 1-Benzyl-8-cyano-5-hydroxy-2-oxo-3-phenyl-1,2-dihydro-[1,7]naphthyridine-6-carboxylic acid methylamide]	> 200
CC(C)(CNC(=O)c1nc(C#N)c2c(=O)n(Cc3ccccc3)ccc2c1O)C(=O)O [Example 50, 3-[(7-Benzyl-1-cyano-4-hydroxy-8-oxo-7,8-dihydro-[2,7]naphthyridine-3-carbonyl)-amino]-2,2-dimethyl-propionic acid]	> 200
COc1ccc(Cn2ccc3c(O)c(C(=O)NCc4ccc(F)cc4)ncc3c2=O)c(OC)c1 [Example 78, 7-(2,4-Dimethoxy-benzyl)-4-hydroxy-8-oxo-7,8-dihydro-[2,7]naphthyridine-3-carboxylic acid 4-fluoro-benzylamide]	> 200
CNC(=O)c1nc(C#N)c2c(=O)n(Cc3ccccc3)ccc2c1O [Example 38, 7-Benzyl-1-cyano-4-hydroxy-8-oxo-7,8-dihydro-[2,7]naphthyridine-3-carboxylic acid methylamide]	> 200
N#Cc1nc(C(=O)N[C@H](Cc2ccccc2)C(=O)O)c(O)c2ccn(Cc3ccccc3)c(=O)c12 [Example 51, (R)-2-[(7-Benzyl-1-cyano-4-hydroxy-8-oxo-7,8-dihydro-[2,7]naphthyridine-3-carbonyl)-amino]-3-phenyl-propionic acid]	> 200
CNC(=O)c1ncc2ccc(=O)n(Cc3ccccc3)c2c1O [Example 75, 1-Benzyl-8-hydroxy-2-oxo-1,2-dihydro-[1,6]naphthyridine-7-carboxylic acid methylamide]	> 200
CCCNC(=O)CCCNC(=O)c1nc(C#N)c2c(=O)n(Cc3ccccc3)ccc2c1O [Example 73, 7-Benzyl-1-cyano-4-hydroxy-8-oxo-7,8-dihydro-[2,7]naphthyridine-3-carboxylic acid (3-propylcarbamoyl-propyl)-amide]	> 200
N#Cc1nc(C(=O)N[C@@H](Cc2ccccc2)C(=O)O)c(O)c2ccn(Cc3ccccc3)c(=O)c12 [Example 56, (S)-2-[(7-Benzyl-1-cyano-4-hydroxy-8-oxo-7,8-dihydro-[2,7]naphthyridine-3-carbonyl)-amino]-3-phenyl-propionic acid]	> 200
O=C(O)CCNC(=O)c1ncc2ccn(Cc3ccccc3)c(=O)c2c1O [Example 54, 3-[(6-Benzyl-4-hydroxy-5-oxo-5,6-dihydro-[2,6]naphthyridine-3-carbonyl)-amino]-propionic acid]	181
COc1ccc(Cn2ccc3c(O)c(C(=O)NCCc4ccccc4)ncc3c2=O)c(OC)c1 [Example 76, 7-(2,4-Dimethoxy-benzyl)-4-hydroxy-8-oxo-7,8-dihydro-[2,7]naphthyridine-3-carboxylic acid phenethyl-amide]	> 200
CC(C)(CNC(=O)c1nc(-c2cncc(F)c2)c2c(=O)n(Cc3ccccc3)ccc2c1O)C(=O)O [Example 88, 3-{[7-Benzyl-1-(5-fluoro-pyridin-3-yl)-4-hydroxy-8-oxo-7,8-dihydro-[2,7]naphthyridine-3-carbonyl]-amino}-2,2-dimethyl-propionic acid]	> 200
CC(C)(CNC(=O)c1ncc2ccc(=O)n(Cc3ccccc3)c2c1O)C(=O)O [Example 71, 3-[(1-Benzyl-8-hydroxy-2-oxo-1,2-dihydro-[1,6]naphthyridine-7-carbonyl)-amino]-2,2-dimethyl-propionic acid]	> 200

Other lines, results leading:

IC50 [µM]	Compound
> 200	Cc1nc(C(=O)NCCC(=O)O)c(O)c2c1ccc(=O)n2Cc1ccccc1 [Example 112, 3-[(1-Benzyl-8-hydroxy-5-methyl-2-oxo-1,2-dihydro-[1,6]naphthyridine-7-carbonyl)-amino]-propionic acid]
176	Cc1ccc(-c2nc(C(=O)NCCC(=O)O)c(O)c3cc(-c4ccccc4)c(=O)n(Cc4ccccc4)c23)cn1 [Example 179, 3-{[1-Benzyl-5-hydroxy-8-(6-methyl-pyridin-3-yl)-2-oxo-3-phenyl-1,2-dihydro-[1,7]naphthyridine-6-carbonyl]-amino}-propionic acid]
137	CC(=O)NCCNC(=O)c1ncc2ccc(=O)n(Cc3ccccc3)c2c1O [Example 96, 1-Benzyl-8-hydroxy-2-oxo-1,2-dihydro-[1,6]naphthyridine-7-carboxylic acid (2-acetylamino-ethyl)-amide]
200	C[C@@H](c1ccccc1)n1c(=O)c(-c2ccccc2)cc2c(O)c(C(=O)NCCC(=O)O)nc(-c3cccnc3)c21 [Example 175, (S)-3-{[5-Hydroxy-2-oxo-3-phenyl-1-(1-phenyl-ethyl)-8-pyridin-3-yl-1,2-dihydro-[1,7]naphthyridine-6-carbonyl]-amino}-propionic acid]
> 200	CN(CCNC(=O)c1ncc2ccc(=O)n(Cc3ccccc3)c2c1O)S(C)(=O)=O [Example 105, 1-Benzyl-8-hydroxy-2-oxo-1,2-dihydro-[1,6]naphthyridine-7-carboxylic acid [2-(methanesulfonyl-methyl-amino)-ethyl]amide]
200	O=C(O)CCCCNC(=O)c1nc(-c2cccnc2)c2c(cc(-c3ccccc3)c(=O)n2Cc2ccccc2)c1O [Example 163, 5-[(1-Benzyl-5-hydroxy-2-oxo-3-phenyl-8-pyridin-3-yl-1,2-dihydro-[1,7]naphthyridine-6-carbonyl)-amino]-pentanoic acid]
138	O=C(O)CCNC(=O)c1nc(-c2nccs2)c2c(cc(-c3ccccc3)c(=O)n2Cc2ccccc2)c1O [Example 195, 3-[(1-Benzyl-5-hydroxy-2-oxo-3-phenyl-8-thiazol-2-yl-1,2-dihydro-[1,7]naphthyridine-6-carbonyl)-amino]-propionic acid]
> 200	N#Cc1nc(C(=O)NCCS(N)(=O)=O)c(O)c2c1ccc(=O)n2Cc1ccccc1 [Example 106, 1-Benzyl-5-cyano-8-hydroxy-2-oxo-1,2-dihydro-[1,6]naphthyridine-7-carboxylic acid (2-sulfamoyl-ethyl)-amide]
200	O=C(O)CCNC(=O)c1nc(-c2cscn2)c2c(cc(-c3ccccc3)c(=O)n2Cc2ccccc2)c1O [Example 202, 3-[(1-Benzyl-5-hydroxy-2-oxo-3-phenyl-8-thiazol-4-yl-1,2-dihydro-[1,7]naphthyridine-6-carbonyl)-amino]-propionic acid]
200	CCNC(=O)NCCNC(=O)c1ncc2c(cc(-c3ccccc3)c(=O)n2Cc2ccccc2)c1O [Example 110, 1-Benzyl-5-hydroxy-2-oxo-3-phenyl-1,2-dihydro-[1,7]naphthyridine-6-carboxylic acid [2-(3-ethyl-ureido)-ethyl]-amide]
200	CC(C)(CNC(=O)c1nc(-c2cccnc2)c2c(cc(-c3ccccc3)c(=O)n2Cc2ccccc2)c1O)C(=O)O [Example 191, 3-[(1-Benzyl-5-hydroxy-2-oxo-3-phenyl-8-pyridin-3-yl-1,2-dihydro-[1,7]naphthyridine-6-carbonyl)-amino]-2,2-dimethyl-propionic acid]
200	O=C(O)CCNC(=O)c1nc(-c2cccnc2)c2c(=O)n(Cc3ccccc3)ccc2c1O [Example 206, 3-[(7-Benzyl-4-hydroxy-8-oxo-1-pyridin-3-yl-7,8-dihydro-[2,7]naphthyridine-3-carbonyl)-amino]-propionic acid]
200	CN(CCNC(=O)c1nc(-c2cccnc2)c2c(cc(-c3ccccc3)c(=O)n2Cc2ccccc2)c1O)S(C)(=O)=O [Example 134, 1-Benzyl-5-hydroxy-2-oxo-3-phenyl-8-pyridin-3-yl-1,2-dihydro-[1,7]naphthyridine-6-carboxylic acid [2-(methanesulfonyl-methyl-amino)-ethyl]amide]
134	CC(=O)NCCNC(=O)c1nc(C#N)c2ccc(=O)n(Cc3ccccc3)c2c1O [Example 95, 1-Benzyl-5-cyano-8-hydroxy-2-oxo-1,2-dihydro-[1,6]naphthyridine-7-carboxylic acid (2-acetylamino-ethyl)-amide]
> 200	O=C(NCCNC(=O)C(F)(F)F)c1ncc2c(cc(-c3ccccc3)c(=O)n2Cc2ccccc2)c1O [Example 109, 1-Benzyl-5-hydroxy-2-oxo-3-phenyl-1,2-dihydro-[1,7]naphthyridine-6-carboxylic acid [2-(2,2,2-trifluoro-acetylamino)-ethyl]-amide]
103	O=C(N[C@H](Cc1ccccc1)C(=O)O)c1ncc2c(cc(-c3ccccc3)c(=O)n2Cc2ccccc2)c1O [Example 152, (R)-2-[(1-Benzyl-5-hydroxy-2-oxo-3-phenyl-1,2-dihydro-[1,7]naphthyridine-6-carbonyl)-amino]-3-phenyl-propionic acid]
107	O=C(O)CCNC(=O)c1nc(-c2ccc(C(F)(F)F)nc2)c2c(cc(-c3ccccc3)c(=O)n2Cc2ccccc2)c1O [Example 180, 3-{[1-Benzyl-5-hydroxy-2-oxo-3-phenyl-8-(6-trifluoromethyl-pyridin-3-yl)-1,2-dihydro-[1,7]naphthyridine-6-carbonyl]-amino}-propionic acid]
